Results: ChEMBL document CHEMBL4483862, “Open-source discovery of chemical leads for next-generation chemoprotective antimalarials” (2018)

Tested on: Plasmodium berghei
Assay: Luciferase/luciferin-expressing antifolate-resistant parasites were used to infect a culture of HepG2 cells that were pre-incubated with compounds. Infected hepatocytes emit light due to the luciferase reaction. Assay results are presented as the percent inhibition of light emission compared to control. […]
Assay type: functional
Conditions: sporozoite; for IC90: read-out: LUCIFERASE INFECTION ASSAY - IC90

CCOC(=O)c1cnc2c([N+](=O)[O-])cccc2c1O
IC50 (PBLUC_HILL_SLOPE 2.74, PBLUC_R_SQUARED 0.626, read-out: LUCIFERASE INFECTION ASSAY - IC50): 1.79 µM
IC90: 4 µM

Cc1ccc(S(=O)(=O)N2c3ccc(S(N)(=O)=O)cc3CC2C)cc1 (stereo not given)
IC50 (PBLUC_HILL_SLOPE 2.71, PBLUC_R_SQUARED 0.472, read-out: LUCIFERASE INFECTION ASSAY - IC50): 4.01 µM
IC90: > 9.01 µM

O=C(Nc1ccc(Oc2ccc(C(F)(F)F)cn2)c(Cl)c1)C1CC1
IC50 (PBLUC_HILL_SLOPE 2.75, PBLUC_R_SQUARED 0.594, read-out: LUCIFERASE INFECTION ASSAY - IC50): 1.96 µM
IC90: 4.36 µM

CN1C(c2ccc(F)cc2)=CS/C1=C(/C#N)c1nnc(N2CCOCC2)n1-c1ccccc1
IC50 (PBLUC_HILL_SLOPE 2.7, PBLUC_R_SQUARED 0.681, read-out: LUCIFERASE INFECTION ASSAY - IC50): 6.9 µM
IC90: > 10 µM

COc1ccccc1NC(=O)Nc1nc(C(N)CCc2ccccc2)cs1 (stereo not given)
IC50 (PBLUC_HILL_SLOPE 2.77, PBLUC_R_SQUARED 0.721, read-out: LUCIFERASE INFECTION ASSAY - IC50): 5.07 µM
IC90: > 8.63 µM

OC(CN1CCN(CC(O)Cn2c3ccccc3c3ccccc32)CC1)Cn1c2ccccc2c2ccccc21 (stereo not given)
IC50 (PBLUC_HILL_SLOPE 2.73, PBLUC_R_SQUARED 0.624, read-out: LUCIFERASE INFECTION ASSAY - IC50): 3.03 µM
IC90: > 6.2 µM

CCn1ncc2c(C(=O)Nc3ccc(-c4cn5ccsc5n4)cc3)cc(-c3cccs3)nc21
IC50 (PBLUC_HILL_SLOPE 2.78, PBLUC_R_SQUARED 0.317, read-out: LUCIFERASE INFECTION ASSAY - IC50): 7.98 µM
IC90: > 10 µM

Cc1ccc(-c2nc3c(c(SCCN4CCCC4)n2)COC(C)(C)C3)cc1
IC50 (PBLUC_HILL_SLOPE 2.75, PBLUC_R_SQUARED 0.0927, read-out: LUCIFERASE INFECTION ASSAY - IC50): 7.13 µM
IC90: > 8.6 µM

CN(Cc1ccccc1)S(=O)(=O)N1CCC(C(O)(c2ccccc2)c2ccccc2)CC1
IC50 (PBLUC_HILL_SLOPE 2.67, PBLUC_R_SQUARED 0.571, read-out: LUCIFERASE INFECTION ASSAY - IC50): 4.18 µM
IC90: 9.51 µM

CN1N=C(SCc2ccc(Cl)cc2Cl)Sc2c1cnn(C)c2=O
IC50 (PBLUC_HILL_SLOPE 2.78, PBLUC_R_SQUARED 0.171, read-out: LUCIFERASE INFECTION ASSAY - IC50): 5.14 µM
IC90: > 8.52 µM

Cc1ccc(Nc2nc(N)nc(CN(C)Cc3nc(=O)c4ccccc4[nH]3)n2)cc1
IC50 (PBLUC_HILL_SLOPE 2.75, PBLUC_R_SQUARED 0.503, read-out: LUCIFERASE INFECTION ASSAY - IC50): 3.7 µM
IC90: 8.22 µM

Clc1ccc(OCCN2CCN(c3ccc4nnnn4n3)CC2)cc1
IC50 (PBLUC_HILL_SLOPE 2.76, PBLUC_R_SQUARED 0.489, read-out: LUCIFERASE INFECTION ASSAY - IC50): 6.13 µM
IC90: > 10 µM

Cc1nc(-c2ccc(NC(=O)c3cnn(-c4ccccc4F)c3C(F)(F)F)cc2)cs1
IC50 (PBLUC_HILL_SLOPE 2.7, PBLUC_R_SQUARED 0.26, read-out: LUCIFERASE INFECTION ASSAY - IC50): 7.76 µM
IC90: > 10 µM

CCN(CC)CCn1c(NC(=O)c2cc(-c3cccs3)nn2-c2ccccc2)nc2ccccc21
IC50 (PBLUC_HILL_SLOPE 2.69, PBLUC_R_SQUARED 0.0924, read-out: LUCIFERASE INFECTION ASSAY - IC50): 6.76 µM
IC90: > 10 µM

COc1ccc(C(CNC(=O)c2ccccc2-c2ncc(-c3ccccc3)o2)N(C)C)cc1 (stereo not given)
IC50 (PBLUC_HILL_SLOPE 2.7, PBLUC_R_SQUARED 0.455, read-out: LUCIFERASE INFECTION ASSAY - IC50): 5.19 µM
IC90: > 10 µM

OCc1ccc(-c2cn3c(-c4ccc(Oc5ccccc5)cc4)cnc3cn2)cc1
IC50 (PBLUC_HILL_SLOPE 2.74, PBLUC_R_SQUARED 0.523, read-out: LUCIFERASE INFECTION ASSAY - IC50): 5.32 µM
IC90: > 8.39 µM

COc1ccc(C(C)(C)C)cc1NC(=O)C(=O)c1c(-c2ccccc2)cc2ccccn12
IC50 (PBLUC_HILL_SLOPE 2.71, PBLUC_R_SQUARED 0.442, read-out: LUCIFERASE INFECTION ASSAY - IC50): 3.95 µM
IC90: 8.89 µM

CC(C)CNC1=C(Cl)C(=O)c2ccccc2C1=O
IC50 (PBLUC_HILL_SLOPE 2.71, PBLUC_R_SQUARED 0.283, read-out: LUCIFERASE INFECTION ASSAY - IC50): 11.4 µM
IC90: > 12.5 µM

CCN(CC)S(=O)(=O)c1ccc(C(C)NC(=O)c2cn(C)c3ccccc23)cc1 (stereo not given)
IC50 (PBLUC_HILL_SLOPE 2.76, PBLUC_R_SQUARED 0.764, read-out: LUCIFERASE INFECTION ASSAY - IC50): 2.73 µM
IC90: 6.07 µM

COc1ccc(-c2cnc3cnc(-c4cccc(NC(C)=O)c4)cn23)cc1
IC50 (PBLUC_HILL_SLOPE 2.77, PBLUC_R_SQUARED 0.737, read-out: LUCIFERASE INFECTION ASSAY - IC50): 4.22 µM
IC90: > 9.21 µM

COc1cccc(-c2cc3c(Nc4cccc(OC(C)C)c4)nccc3n2C)c1
IC50 (PBLUC_HILL_SLOPE 2.76, PBLUC_R_SQUARED 0.246, read-out: LUCIFERASE INFECTION ASSAY - IC50): 6.87 µM
IC90: > 10 µM

CC(C)(C)c1ccc(CSc2nncn2-c2ccc(OCc3ccccc3)cc2)cc1
IC50 (PBLUC_HILL_SLOPE 2.75, PBLUC_R_SQUARED 0.0661, read-out: LUCIFERASE INFECTION ASSAY - IC50): 5.39 µM
IC90: > 7.68 µM

Cc1ccc(-n2[nH]c(C)c(C=Nc3ccc(OC(F)(F)F)cc3)c2=O)cc1
IC50 (PBLUC_HILL_SLOPE 2.73, PBLUC_R_SQUARED 0.732, read-out: LUCIFERASE INFECTION ASSAY - IC50): 4.57 µM
IC90: > 8.79 µM

Cc1cc(/C=C(\C#N)C(=O)OCC(=O)c2c(N)n(CC(C)C)c(=O)n(C)c2=O)c(C)n1CC(C)C
IC50 (PBLUC_HILL_SLOPE 2.67, PBLUC_R_SQUARED 0.243, read-out: LUCIFERASE INFECTION ASSAY - IC50): 7.76 µM
IC90: > 10 µM

Cc1cc(=O)nc(N/N=C/c2cc(C)n(-c3ccc(C)c(C)c3)c2C)[nH]1
IC50 (PBLUC_HILL_SLOPE 2.67, PBLUC_R_SQUARED 0.2, read-out: LUCIFERASE INFECTION ASSAY - IC50): 9.4 µM
IC90: > 10 µM

COc1cccc(Nc2nccc3nc(-c4cccc(C)c4)[nH]c23)c1
IC50 (PBLUC_HILL_SLOPE 2.7, PBLUC_R_SQUARED 0.647, read-out: LUCIFERASE INFECTION ASSAY - IC50): 6.02 µM
IC90: > 10 µM

CCOc1cc2c(cc1CNC(=O)c1cnc3cc(C)nn3c1C)OC(C)C2 (stereo not given)
IC50 (PBLUC_HILL_SLOPE 2.71, PBLUC_R_SQUARED 0.828, read-out: LUCIFERASE INFECTION ASSAY - IC50): 2.13 µM
IC90: 4.78 µM

c1ccc2c(c1)[nH]c1nc(SCc3cn4ccsc4n3)nnc12
IC50 (PBLUC_HILL_SLOPE 2.76, PBLUC_R_SQUARED 0.824, read-out: LUCIFERASE INFECTION ASSAY - IC50): 0.836 µM
IC90: 1.85 µM

CCN1CCc2nc(NC(=O)c3ccccc3Nc3ccc(F)cc3)sc2C1
IC50 (PBLUC_HILL_SLOPE 2.71, PBLUC_R_SQUARED 0.663, read-out: LUCIFERASE INFECTION ASSAY - IC50): 3.58 µM
IC90: 8.04 µM

COc1cc(OC)c2[nH]c(C(=O)Nc3ccc(-n4cccn4)cc3)cc2c1
IC50 (PBLUC_HILL_SLOPE 2.78, PBLUC_R_SQUARED 0.238, read-out: LUCIFERASE INFECTION ASSAY - IC50): 6.45 µM
IC90: > 10 µM

O=S(=O)(c1ccc(Cl)c(NC(=S)N/N=C/c2ccc3ncccc3c2)c1)N1CCOCC1
IC50 (PBLUC_HILL_SLOPE 2.75, PBLUC_R_SQUARED 0.637, read-out: LUCIFERASE INFECTION ASSAY - IC50): 5.55 µM
IC90: > 10 µM

CCN(CC)CCn1c(NC(=O)c2cnc3c(cnn3C(C)C)c2)nc2ccccc21
IC50 (PBLUC_HILL_SLOPE 2.78, PBLUC_R_SQUARED 0.504, read-out: LUCIFERASE INFECTION ASSAY - IC50): 2.97 µM
IC90: 6.55 µM

CC(C)NC(=O)c1c(NC(=O)c2cc(F)ccc2F)nc2ccccn12
IC50 (PBLUC_HILL_SLOPE 2.78, PBLUC_R_SQUARED 0.497, read-out: LUCIFERASE INFECTION ASSAY - IC50): 6.02 µM
IC90: > 9.21 µM

CC(Oc1ccc(-c2ccc(C#N)cc2)cc1)C(=O)C12CC3CC(CC(C3)C1)C2 (stereo not given)
IC50 (PBLUC_HILL_SLOPE 2.77, PBLUC_R_SQUARED 0.53, read-out: LUCIFERASE INFECTION ASSAY - IC50): 5.65 µM
IC90: > 10 µM

Cn1ccc(NC(=O)c2cccc(S(=O)(=O)N(Cc3ccccc3)c3ccccc3Cl)c2)n1
IC50 (PBLUC_HILL_SLOPE 2.72, PBLUC_R_SQUARED 0.559, read-out: LUCIFERASE INFECTION ASSAY - IC50): 4.88 µM
IC90: > 10 µM

COc1cc(OC)c(OC)cc1CNC(=O)c1ccc2[nH]c3c(c2c1)CCCC3
IC50 (PBLUC_HILL_SLOPE 2.72, PBLUC_R_SQUARED 0.276, read-out: LUCIFERASE INFECTION ASSAY - IC50): 9.2 µM
IC90: > 10 µM

O=C(c1cc(-c2cccc3ccccc23)nc2ccccc12)N1CCN(c2ncccn2)CC1
IC50 (PBLUC_HILL_SLOPE 2.78, PBLUC_R_SQUARED 0.395, read-out: LUCIFERASE INFECTION ASSAY - IC50): 8.3 µM
IC90: > 10 µM

O=C(/C=C/c1cccs1)N1CCN(S(=O)(=O)c2ccc(Cl)c(C(F)(F)F)c2)CC1
IC50 (PBLUC_HILL_SLOPE 2.7, PBLUC_R_SQUARED 0.367, read-out: LUCIFERASE INFECTION ASSAY - IC50): 5.47 µM
IC90: > 10 µM

Cc1cc(NCCN(C)C)n2nc(C(F)(F)F)c(-c3ccccc3)c2n1
IC50 (PBLUC_HILL_SLOPE 2.75, PBLUC_R_SQUARED 0.0665, read-out: LUCIFERASE INFECTION ASSAY - IC50): 5.68 µM
IC90: > 9.08 µM

CCN(CC)S(=O)(=O)c1ccc(N2CCOCC2)c(NC(=O)c2oc3ccccc3c2C)c1
IC50 (PBLUC_HILL_SLOPE 2.77, PBLUC_R_SQUARED 0.561, read-out: LUCIFERASE INFECTION ASSAY - IC50): 4.08 µM
IC90: 9.03 µM
